Ki data for 50 molecules are collected here from patent US9149465B2, “Isoxazolines as inhibitors of fatty acid amide hydrolase” (Infinity Pharmaceuticals, Inc., priority 2009, dated 2015).

The target of the test is T1, human FAAH (Homo sapiens, UniProt O00519).
T1 construct: host or cells: COS-7 cells, transient transfection; 13,000 g membrane fraction solubilised in 1% Triton X-100
T1 sequence (O00519 1-579): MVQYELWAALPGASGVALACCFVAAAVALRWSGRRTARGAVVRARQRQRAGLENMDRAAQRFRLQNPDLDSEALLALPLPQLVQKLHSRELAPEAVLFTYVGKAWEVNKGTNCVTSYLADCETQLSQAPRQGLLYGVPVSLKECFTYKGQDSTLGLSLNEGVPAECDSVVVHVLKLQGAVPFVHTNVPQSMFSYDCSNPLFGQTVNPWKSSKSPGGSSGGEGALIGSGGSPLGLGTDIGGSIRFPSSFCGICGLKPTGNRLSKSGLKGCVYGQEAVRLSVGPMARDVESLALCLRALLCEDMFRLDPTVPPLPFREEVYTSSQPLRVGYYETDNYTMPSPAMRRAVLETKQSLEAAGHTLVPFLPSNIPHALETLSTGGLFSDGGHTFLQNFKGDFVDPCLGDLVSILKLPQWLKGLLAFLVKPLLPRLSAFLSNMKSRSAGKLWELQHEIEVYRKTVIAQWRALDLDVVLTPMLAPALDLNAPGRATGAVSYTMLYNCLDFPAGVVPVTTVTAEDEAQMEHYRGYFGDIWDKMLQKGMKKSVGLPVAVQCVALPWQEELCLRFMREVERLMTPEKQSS
Kind of test: Inhibition of human FAAH (AMC arachidonoyl amide fluorescence assay). The class given is biochemical. The settings on record: inhibitor preincubated 30 minutes at room temperature; 20 μM AMC arachidonoyl amide; 4 hours; read-out: Activity (Ki, inhibitors of human FAAH). The procedure:
Human FAAH Preparation: COS-7 cells were split the day before, 1:5 into 150 mm x […] cell culture dishes (Corning Inc., Cat. No. 430599). Transient transfection took place at 30-40% confluency according to FuGENE 6 Transfection Reagent (Roche, Cat. No. 11814 443 001).
Transfection Procedure: The FuGENE transfection 6 reagent (45 uL) was added to 1410 μL of media (DMEM, serum free without pen/strep) in a 15 mL conical tube and incubated at room temp for 5 minutes, followed by the addition of FAAH plasmid DNA (15 μg) (OriGene Cat. No. TC119221, Genbank Accession No. NM_001441.1, 0.67 ug/uL) and a further incubation of 15 minutes at room temperature. The resulting solution was added into one dish of 30-40% confluent COS-7 cells in a drop-wise manner. The COS-7 cell dish was subsequently incubated for 48 hours. The cells are then harvested.
Harvest procedure: Media was aspirated from the dishes and the cells rinsed with 10 mL PBS. The PBS was removed and 3 mL of PBS added to the dish. The dish was scraped to resuspend the cells, and the subsequent cell suspension collected into a 15 mL conical tube. The cells were pelleted by centrifugation at 1200 rpm for 5 minutes in a bench top centrifuge. PBS was removed and the cell pellet snap frozen in liquid nitrogen and stored at −80° C.
COS-7 cells —FAAH purification: • (1) Fractionation: Frozen cell pellets from transient transfections were thawed on ice and resuspended in 12.5 mM Hepes pH 8.0, 100 mM NaCl, 1 mM EDTA (10 mL/0.2 g cell pellet). The pellets were dounce homogenized and then sonicated to produce cell extract. The cell extract was subsequently centrifuged at 1000 g to remove cellular debris. The pellet was discarded and the supernatant centrifuged at 13,000 g for 20 minutes. The pellet contained membrane bound FAAH. The supernatant was discarded and the pellet resolubilized. • (2) Re-solubilization: The fraction of interest, (13,000 g, membrane fraction) was re-suspended in 2.3 mL re-suspension buffer (20 mM Hepes pH 7.8, 10% v/v Glycerol, 1 mM EDTA, 1% Triton X-100) and the sample incubated on ice for 1 hour and then centrifuged to remove any particulate matter. The supernatant containing solubilized human FAAH was aliquoted and snap frozen in liquid nitrogen and stored at −80° C. until use. • (3) Characterization: Protein Concentration determined by Bradford assay. • SDS gel and Western blot to confirm presence of FAAH • FAAH activity assay • Km determination-96-well assay • Linear dependence—96-well assay • Standard compound Ki determination—384-well assay
Human FAAH assay; Experimental Protocol: A 0.1 mg/mL Human FAAH solution was made up in FAAH reaction buffer, and 24 ul pipeted into a 384 well plate. To this was added 1 μL of a 3 fold serially diluted inhibitor from a DMSO stock solution. The FAAH solution and inhibitor were incubated for 30 minutes at room temperature. The FAAH reaction was initiated by the addition of 25 μL of 40 μM AMC Arachidonoyl Amide in FAAH reaction buffer, yielding a final reaction human FAAH preparation concentration of 0.05 mg/ml and AMC-Arachidonoyl substrate concentration of 20 μM, reaction volume 50 μL. The reaction was allowed to proceed for 4 hours at room temperature. The reaction was stopped by the addition of 25 μL 12 μM a-ketoheterocycle (Cayman Chemicals, catalogue #10435). The microtiter plate was read in the envision plate reader.
The raw fluorescence was plotted on the y axis and the inhibitor concentration on the x axis to give a dose response inhibition curve. The data was fitted to a single site competitive inhibition equation, fixing the Km for the human enzyme to 12 μM and 9 μM respectively.
By Ki is commonly meant a measure of affinity in units of concentration, obtained from inhibition or displacement. As to `CNC(=O)c1ccc(OC2=NOC(C)(c3ccc(OC(F)(F)F)cc3)C2)cn1` (racemic) [I-114], the Ki is at most 100 nM.
Under `Cn1cc(-c2ccc(OC3=NOC(C)(c4ccc(OC(F)(F)F)cc4)C3)cn2)cn1` (racemic) [I-240] stands at most 100 nM.
Regarding `COc1cncc(OC2=NOC(c3ccc(Oc4ccccc4)cc3)C2)c1` (racemic) [I-65], the Ki was at most 100 nM.
For the molecule `COC(=O)c1cncc(OC2=NOC(c3ccc(OC(F)(F)F)cc3)C2)c1` (single isomer, unassigned) [I-46], the Ki lay within 100 to 1000 nM.
For the molecule `C#CCOc1ccc([C@H]2CC(Oc3ccc(C(=O)OC)nc3)=NO2)cc1` (racemic) [I-144], the Ki was at most 100 nM.
Under `FC(F)(F)Oc1ccc(C2CC(Oc3cncc(-c4nnco4)c3)=NO2)cc1` (racemic) [I-230] stands at most 100 nM.
Turning to `O=S(=O)(c1ccc([C@H]2CC(Br)=NO2)cc1)N1CCCCC1` (racemic) [I-210], the Ki is at most 100 nM.
With `CCC1(c2ccc(Oc3ccccc3)cc2)CC(Br)=NO1` (racemic) [I-95] the figure was at most 100 nM; with `FC(F)(F)c1ccc(C2CC(Oc3ccc(Br)nc3)=NO2)cc1` (racemic) [I-216], 100 to 1000 nM; with `O[C@H](CNC1=NOC(c2ccc(Oc3ccccc3)cc2)C1)c1ccccc1` (mixture of isomers) [I-245], at least 1000 nM.
Under `C#CCOc1ccc([C@H]2CC(Oc3ccc(C(=O)O)nc3)=NO2)cc1` (racemic) [I-145] stands at most 100 nM; under `CS(=O)(=O)c1ccc(OC2=NO[C@@H](c3ccc(C(=O)NCc4ccccc4)cc3)C2)cn1` (racemic) [I-214], at most 100 nM; under `CC(C)Oc1ccc([C@H]2CC(Oc3ccc(C(=O)O)nc3)=NO2)cc1` (racemic) [I-140], at most 100 nM.
As to `O=C(O)c1ccc(OC2=NOC(c3ccc(Oc4ccccc4)cc3)C2)cn1` (racemic) [I-110], the Ki is at most 100 nM.
`CC1(c2ccc(OC(F)(F)F)cc2)CC(Oc2cncc(-c3n[nH]c(=O)o3)c2)=NO1` (racemic) [I-231]: the Ki was in the range of 100 to 1000 nM.
On to `FC(F)(F)Oc1ccc(C2CC(Oc3cncnc3)=NO2)cc1Cl` (racemic) [I-125], for which the Ki is at most 100 nM.
For the molecule `BrC1=NOC(CCOc2ccccc2)C1` (single isomer, unassigned) [I-50], the Ki was 100 to 1000 nM.
`CC1(c2ccc(Oc3ccccc3)cc2)CC(Oc2cccnc2)=NO1` (racemic) [I-89]: the Ki was at most 100 nM.
With `CCS(=O)(=O)c1ccc(OC2=NOC(C)(c3ccc(OC(F)(F)F)cc3)C2)cn1` (racemic) [I-196], the Ki was at most 100 nM.
Take `c1cncc(OC2=NOC(c3ccc(Oc4cccnc4)cc3)C2)c1` (racemic) [I-87]: the inhibitory constant (Ki) is at most 100 nM.
Take `CC1(c2ccc(OC(F)(F)F)cc2)CC(Oc2ccc(F)c(-c3nnco3)c2)=NO1` (racemic) [I-227]: the Ki was at most 100 nM.
With `BrC1=NOC(CCc2ccccc2)C1` (single isomer, unassigned) [I-49] the figure was 100 to 1000 nM; with `CCCCOc1ccc([C@H]2CC(Oc3cncnc3)=NO2)cc1` (racemic) [I-139], at most 100 nM; with `COC(=O)CNC(=O)c1ccc(OC2=NOC(c3ccc(OC(F)(F)F)cc3)C2)cn1` (racemic) [I-105], at most 100 nM.
Consider `Fc1ccccc1OC1=NOC(c2ccc(Oc3ccccc3)cc2)C1` (racemic) [I-59], for which the Ki lay in the range of 100 to 1000 nM.
Under `Cc1ccc(OC2=NOC(c3ccc(Oc4ccccc4)cc3)C2)cn1` (single isomer, unassigned) [I-40] stands at most 100 nM; under `CC1(c2ccc(OC(F)(F)F)cc2)CC(Oc2ccc(S(C)(=O)=O)cc2)=NO1` (racemic) [I-234], 100 to 1000 nM; under `C[C@@H]1C(Oc2cccnc2)=NO[C@H]1c1ccc(Oc2ccccc2)cc1` (racemic) [I-91], at least 1000 nM.
For `Clc1ccc([C@H]2CC(Oc3cncnc3)=NO2)cc1` (racemic) [I-153], the inhibition constant (Ki) was in the range of 100 to 1000 nM.
With `O=C(O)c1ccc(OC2=NO[C@@H](c3ccc(OC(F)(F)F)c(F)c3)C2)cn1` (racemic) [I-123] the figure was at most 100 nM.
`CC(=O)Nc1ccc(OC2=NOC(c3ccc(Oc4ccccc4)cc3)C2)cn1` (racemic) [I-94]: the Ki was at most 100 nM.
Regarding `C[C@]1(c2ccc(-c3ccccc3)cc2)CC(Oc2cncnc2)=NO1` (racemic) [I-104], the Ki is at most 100 nM.
Consider `COC(=O)CCc1ccc(OC2=NOC(c3ccc(Oc4ccccc4)cc3)C2)cn1` (racemic) [I-98], for which the Ki was at most 100 nM.
With `FC(F)(F)Oc1ccc(C2CC(Oc3ccc(-c4ccc[nH]4)nc3)=NO2)cc1` (racemic) [I-173] the figure was at most 100 nM.
As to `CC1(c2ccc(Oc3ccccc3)cc2)CC(Br)=NO1` (racemic) [I-76], the Ki is at most 100 nM.
In the case of `Fc1ccc([C@H]2CC(Br)=NO2)cc1` (racemic) [I-2], the Ki was 100 to 1000 nM.
Take `N#Cc1ccc(OC2=NOC(c3ccc(Oc4ccccc4)cc3)C2)cc1` (single isomer, unassigned) [I-27]: the Ki is at most 100 nM.
For `Cc1nnc(-c2ccc(OC3=NOC(c4ccc(Oc5ccccc5)cc4)C3)cn2)o1` (racemic) [I-155], the Ki was at most 100 nM.
For `O=c1ccccn1C1=NOC(c2ccc(Oc3ccccc3)cc2)C1` (single isomer, unassigned) [I-33], the Ki is at least 1000 nM.
For the molecule `c1ccc(Oc2ccc(C3CC(Oc4cnc5cc[nH]c5c4)=NO3)cc2)cc1` (racemic) [I-57], the Ki was at most 100 nM.
Under `CCOC(=O)c1cccc(-c2ccc(OC3=NOC(c4ccc(OC(F)(F)F)cc4)C3)cn2)c1` (racemic) [I-84] stands 100 to 1000 nM; under `CN(C)C(=O)c1ccc(C2CC(Oc3ccc(S(C)(=O)=O)nc3)=NO2)cc1` (racemic) [I-212], 100 to 1000 nM; under `CC1(c2ccc(OC(F)(F)F)cc2)CC(Oc2ccc(-c3ccoc3)nc2)=NO1` (racemic) [I-154], at most 100 nM.
Under `COC(=O)c1cccc(OC2=NOC(c3ccc(Oc4ccccc4)cc3)C2)c1` (racemic) [I-61] stands at most 100 nM.
Under `C#CCOc1ccc([C@H]2CC(Br)=NO2)cc1` (racemic) [I-142] stands at most 100 nM; under `COC(=O)c1ccc(OC2=NOC(c3ccc(OC(F)(F)F)cc3)C2)cn1` (racemic) [I-96], at most 100 nM.
For the molecule `Fc1cccc(-c2ccc(C3CC(Oc4cncnc4)=NO3)c(F)c2)c1` (racemic) [I-119], the Ki is at most 100 nM.
For the molecule `FC(F)(F)Oc1ccc(C2CC(Oc3cncc(-c4ccccc4)c3)=NO2)cc1` (racemic) [I-72], the inhibition constant (Ki) lay within 100 to 1000 nM.
Turning to `CN(C)C(=O)c1ccc([C@H]2CC(Br)=NO2)cc1` (racemic) [I-203], the inhibitory constant (Ki) is at most 100 nM.
With `Cc1nnc(-c2ccc(OC3=NOC(c4ccc(OC(F)(F)F)cc4)C3)cn2)o1` (racemic) [I-157] the figure was at most 100 nM.
